Where two headings read alike, the source gives them in different places.
Key:
[1] = test system: Plasmodium falciparum blood forms (W2 clone, chloroquine-resistant); test: in vitro antiplasmodial activity, anti-histidine-rich protein II assay; assay type: cell-based
Procedure: Continuous culture of P. falciparum and in vitro tests of drug activity - Blood-stage P. falciparum parasites, W2 clone CQ-resistant ([Oduola et al. 1988]), maintained according to [Trager & Jensen (1976)], were used in the drug activity tests after sorbitol-synchronisation ([Lambros & Vanderberg 1979)]. The antiplasmodial activity of the compounds was determined relative to control parasites kept in culture medium only ([Rieckmann et al. 1978)] through the anti-histidine-rich protein II assay ([Noedl et al. 2002)]. The IC50 of parasite growth was determined through sigmoidal dose-response curves built by curve-fitting software (Microcal Origin Software v.5.0). […]

[2] = octanol/water partition coefficient (log P o/w) by HPLC; assay type: physicochemical; settings: determined for the first time in this paper
Excerpt: Measurement of lipophilicity data - Measurements of the octanol/water partition coefficient (log P o/w) were made by the HPLC technique according to a method described previously ([Minick et al. 1988], [Pomper et al. 1990]). Measurement of the chromatographic capacity factors (k) for each molecule was done at various concentrations in the range of 95-75% methanol containing 0.25% (v/v) 1-octanol, and an aqueous phase consisting of 0.15% (v/v) n-decylamine in the buffering agent 3-morpholinopropane-1-sulfonic acid (MOPS) prepared in 1-octanol saturated water adjusted to pH 7.4. These capacity factors (k’) are extrapolated to 100% of the aqueous component given the value of k’. The logP o/w is obtained by the formula logP o/w = 0.13418 + 0.98452 logk’.

[3] = test system: HepG2 human hepatoma cells
Procedure: The SI was calculated in order to give an insight into the therapeutic index of the molecules, i.e., how far the toxic concentration is from the therapeutic one.

[4] = P. falciparum W2 clone, CQ-resistant, blood-stage, anti-HRPII assay, read-out: IC50 Pf

Compound | IC50 [1, 4] [µM] | log P [2] | cytotoxicity class (by MLD50) [3] | IC50 ([1]; Plasmodium falciparum, W2, read-out: IC50 Pf) [µM] | antiplasmodial activity class ([1]; P. falciparum W2, class based on IC50) | IC50 ([1]; Plasmodium falciparum, W2, P. falciparum W2 clone, CQ-resistant, blood-stage, anti-HRPII assay, read-out: IC50 Pf) [µM]
1-[(4-(3-dimethylaminopropoxy)phenyl-phenyl)methylidene][3]ferrocenophane [Compound 8] | 5.9 ± 1.6 | 3.46 | toxic (those having MLD50< 100 mM were considered toxic) | – | – | –
CCN(CC)CCCC(C)Nc1ccnc2cc(Cl)ccc12 (stereo not shown) [CQ, chloroquine, reference compound] | – | – | – | 0.1 ± 0.02 | – | –
CCC(=C(c1ccccc1)c1ccccc1)c1ccccc1 [Compound 1] | 83 ± 5 | – | – | – | inactive | > 60
